Article PMC2551328 (Biochemistry, 2008)

Key:
Type in all cases: biochemical
M.tb PGDH G316V = M.tb PGDH G316V (Mycobacterium tuberculosis, UniProt P9WNX3, G315V)
M.tb PGDH Y461A = M.tb PGDH Y461A (Mycobacterium tuberculosis, UniProt P9WNX3, Y460A)
M.tb PGDH G318V = M.tb PGDH G318V (Mycobacterium tuberculosis, UniProt P9WNX3, G317V)
M.tb PGDH G317, 318V = M.tb PGDH G317, 318V (Mycobacterium tuberculosis, UniProt P9WNX3, G316V/G317V)
M.tb PGDH D463A = M.tb PGDH D463A (Mycobacterium tuberculosis, UniProt P9WNX3, D462A)
M.tb PGDH G316, 318V = M.tb PGDH G316, 318V (Mycobacterium tuberculosis, UniProt P9WNX3, G315V/G317V)
M.tb PGDH G316, 317V = M.tb PGDH G316, 317V (Mycobacterium tuberculosis, UniProt P9WNX3, G315V/G316V)
M.tb PGDH G317V = M.tb PGDH G317V (Mycobacterium tuberculosis, UniProt P9WNX3, G316V)
M.tb PGDH N481A = M.tb PGDH N481A (Mycobacterium tuberculosis, UniProt P9WNX3, N480A)

## N[C@@H](CO)C(=O)O [L-serine, reference compound]
M.tb PGDH G316V
  Hill Coefficient: 1.6 ± 0.1
M.tb PGDH Y461A
  Hill Coefficient: 1.7 ± 0.1
M.tb PGDH G318V
  Hill Coefficient: 2.5 ± 0.1
  decrease in sensitivity to serine: about 5 fold
M.tb PGDH G317, 318V
  Hill Coefficient: 1.9 ± 0.1
M.tb PGDH D463A
  Hill Coefficient: 1.4 ± 0.1
M.tb PGDH G316, 318V
  Hill Coefficient: 1.9 ± 0.1
M.tb PGDH G316, 317V
  Hill Coefficient: 1.7 ± 0.1
M.tb PGDH G317V
  Hill Coefficient: 1.5 ± 0.1

## O=C(O)C(=O)COP(=O)(O)O [HPAP, hydroxypyruvic acid phosphate]
M.tb PGDH G316V
  Ki: 2230 ± 190 µM
  Km: 114 ± 4 µM
  kcat: 1111 ± 30 s⁻¹
M.tb PGDH Y461A
  Ki: 420 ± 65 µM
  Km: 270 ± 60 µM
  kcat: 2754 ± 300 s⁻¹
M.tb PGDH G318V
  Ki: 1920 ± 437 µM
  Km: 203 ± 23 µM
  kcat: 2349 ± 177 s⁻¹
M.tb PGDH G317, 318V
  Ki: 1620 ± 402 µM
  Km: 220 ± 43 µM
  kcat: 605 ± 27 s⁻¹
M.tb PGDH D463A
  Ki: 1090 ± 165 µM
  Km: 140 ± 10 µM
  kcat: 720 ± 89 s⁻¹
M.tb PGDH G316, 318V
  Ki: 220 ± 35 µM
  Km: 470 ± 43 µM
  kcat: 2827 ± 197 s⁻¹
M.tb PGDH N481A
  Ki: 2320 ± 337 µM
  Km: 120 ± 15 µM
  kcat: 603 ± 77 s⁻¹
M.tb PGDH G316, 317V
  Ki: 380 ± 45 µM
  Km: 610 ± 95 µM
  kcat: 2805 ± 310 s⁻¹
M.tb PGDH G317V
  Ki: 1110 ± 148 µM
  Km: 165 ± 9 µM
  kcat: 2111 ± 119 s⁻¹
